According to US9260382B2, “Methods of reducing virulence in bacteria” (priority 2010, dated 2016):
Entries after “also recorded” stand apart in the source; their conditions may differ.

Key:
[1] = system: hrpA promoter (T3SS); assay: hrpA promoter-probe phrpA in Erwinia amylovora 273, flow cytometry; format: cell-based; conditions: Ea273 (phrpA), HIM + 100 μM compound
In short: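 Erwinia amylovora 273 carrying an hrpA promoter–GFP fusion (pPROBE-NT) was grown in hrp-inducing medium with 100 μM compound or DMSO. Promoter activity read as GFP intensity by flow cytometry at 6 h and 9 h.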

[2] = system: P. aeruginosa; assay: P. aeruginosa bacterial growth with compound; format: cell-based, P. aeruginosa PA01; conditions: for effect on bacterial growth, in words: P. aeruginosa, 250 μM; for dose-dependent effect on P. aeruginosa growth, in words: various concentrations (up to 250 μM for 101, up to 500 μM for 027), FIG. 39
Protocol: (§1) To identify T3SS inhibitors of PA01, a promoter-probe vector pPROBE-AT containing the promoterless green fluorescent protein (gfp) gene was used to construct an exoS promoter-gfp plasmid reporter, pATexoS. PA01 containing pATexoS was cultured in T3SS-inducing medium containing dimethyl sulfoxide (DMSO; solvent of chemical compounds), or supplemented with 250 μM of each compound, and promoter activity was assessed at 6 h by measuring GFP intensity using flow cytometry. 101 compounds (58 synthesized and 43 commercially available) were screened. Compounds 027, 032, 101, and 149 repressed exoS expression at the final concentration of 250 μM by at least one standard deviation below the sample average (Z score≦−1) (FIG. 37 A-E). Z score (or standard score) indicates how many standard deviations an observation or datum is above or below the mean [z=(x−μ)/σ, where x is a raw score to be standardized, μ is the mean of the population, and σ is the standard deviation of the population].
(§2) To determine the effective concentration of compounds, the dose-dependent effect of potential inhibitors on exoS expression and bacterial growth were tested. P. aeruginosa cells carrying pATexoS were pre-cultured in LB supplemented with 200 mM NaCl and transferred to fresh LB with 200 mM NaCl, 10 mM NTA, and various concentrations of compounds (20, 50, 100, and 250 μM) or DMSO for 6 h. […] At 50 μM dosage, both 027 and 101 inhibited exoS expression at similar levels, and this inhibitory effect increased as compound concentration increased (FIG. 38A and Table 17). […] These inhibitions/inductions of exoS expression are caused by the shifting bacterial population between low-state expression cells and high-state expression cells (FIG. 40).

[3] = system: exoS promoter (T3SS); assay: exoS promoter-gfp reporter pATexoS, flow cytometry; format: cell-based, P. aeruginosa PA01; conditions: for Actual readings of flow cytometry (exoS expression): 6 h, LB with 200 mM NaCl, 10 mM NTA
Protocol: as §1, §2

[4] = system: hrpA promoter (T3SS); assay: GFP reporter plasmid phrpA, flow cytometry (FACS) of hrpA promoter activity; format: cell-based, Dickeya dadantii 3937; conditions: for mean fluorescence intensity of GFP, hrpA expression: D. dadantii 3937 (phrpA), MM + 100 μM compound; for inhibitory activity on T3SS gene (hrpA) expression, in words: D. dadantii 3937, reporter plasmid phrpA, 100 μM; for minimal effective concentration: Dickeya dadantii, read-out: minimal inhibitory concentration on hrpA expression (concentration showing inhibitory effect)
Protocol: (§3) FACS analysis of promoter activity of dspE, hrpA, hrpL, hrpN, and hrpS was carried out as described (Peng et al., 2006). Briefly, the wild-type Ech3937 and the mutant strains carrying the promoter reporter plasmid were grown on LB broth at 28° C. overnight and transferred to appropriate media. For FACS analysis, samples were collected by centrifugation, washed with 1× phosphate buffer saline (PBS) at 13,000 rpm for 1 min, and re-suspended in 1×PBS to ca 10^6 CFU/ml prior to being run in a FACS Calibur flow cytometer (BD Biosciences, CA). Three replicates were performed for each treatment.
To identify potential compounds that repress activation of T3SS, analogs and isomers of TCA and intermediates of salicylic acid and phenypropanoid biosynthesis pathways in plants were further screened for their effect on Ech3937 hrpA expression by flow cytometry (Table 9). A green fluorescent protein (GFP) reporter plasmid phrpA (pProbe-AT derivative with PCR fragment containing hrpA promoter region) was constructed, resulting in a transcriptional fusion of hrpA promoter with GFP gene. Bacterial cells containing phrpA plasmid were grown in MM supplemented with 0.1 mM of each compound. GFP intensity, which is a measurement of hrpA promoter activity, was measured by flow cytometry.
hrpA encodes the T3SS pilus required for protein translocation into plant cells. To test for an inhibitory effect on T3SS hrpA expression, the reporter plasmid phrpA was used to measure the effects of these compounds on hrpA expression. The reporter plasmid phrpA encodes a transcriptional fusion of the hrpA promoter controlling expression of green fluorescent protein (gfp). 50 μL of bacterial suspension of D. dadantii 3937 carrying the hrpA reporter (optical density at 600 nm OD600=1.0) was used as the initial inoculum and added to 5 mL of MM or MM supplemented with 100 μM of one of the compounds. The expression level of hrpA of these bacterial cells was measured by measuring GFP intensity of gated populations of the bacterial cells by flow cytometry and analyzed with Cell Quest software (BD Biosciences, San Jose, Calif.). The fluorescence intensities were an average GFP fluorescence intensity of total bacterial cells. Compounds were assayed two different times (12 and 24 h of bacterial growth) with T3SS minimal media (MM) as the control treatment for each set of experiment. Values presented in Table 14 are mean fluorescence intensity of GFP, representative of two experiments, presented as the average of three replicates with standard deviation (SD).

[5] = system: hrpS promoter; assay: GFP reporter plasmid phrpS, flow cytometry of hrpS promoter activity; format: cell-based, Dickeya dadantii 3937; conditions: reporter plasmid phrpS
Protocol: as §3
To test for an inhibitory effect on T3SS hrpS expression, the reporter plasmid phrpS was used to measure the effects of these compounds on hrpA expression.

[6] = Trial 1, MM supplemented with compound at 100 μM

Compound	Avg MFI ± SD, hrpA expression ([1]; 6 h)	Avg MFI ± SD, hrpA expression ([1]; 9 h)	effect on bacterial growth, in words [2]	dose-dependent effect on P. aeruginosa growth, in words [2]	Actual readings of flow cytometry (exoS expression) ([3]; 20 uM)	Actual readings of flow cytometry (exoS expression) ([3]; 50 uM)	Actual readings of flow cytometry (exoS expression) ([3]; 100 uM)	Actual readings of flow cytometry (exoS expression) ([3]; 250 uM)	Fraction of untreated control (exoS expression) ([3]; structure-activity table, concentration not given)	mean fluorescence intensity of GFP, hrpA expression ([4]; 12 h)	mean fluorescence intensity of GFP, hrpA expression ([4]; 24 h)	inhibitory activity on T3SS gene (hrpA) expression, in words [4]	minimal effective concentration [4]	Mean Fluorescence Intensity of GFP (hrpA, phrpA) [4, 6]	inhibitory effect on T3SS hrpS expression, in words [5]	Mean Fluorescence Intensity of GFP (hrpA, phrpA) ([4]; Trial 2, MM supplemented with compound at 100 μM)
Nc1ccc(/C=C/C(=O)O)cc1 [Compound 027, trans-4-Aminocinnamic acid]	255.6 ± 7.4	132.1 ± 8.5	minor alterations in bacterial growth	only minor effects on bacterial growth	102.07 ± 0.54	97.23 ± 0.72	78.66 ± 2.69	72.16 ± 1.13	0.66 ± 0.04	–	–	–	–	–	–	–
O=C(NO)c1ccccc1 [Compound 134, Benzhydroxamic acid]	679.0 ± 12.7	921.6 ± 10.3	some inhibition on bacterial growth	inverse relationship was observed between the compound concentration and bacterial growth	157.22 ± 7.94	199.21 ± 3.06	289.53 ± 3.74	411.72 ± 2.70	–	–	–	–	–	–	–	–
CCOC(=O)[C@@H]1C[C@H]1c1ccc(O)cc1 (relative stereo) [Compound 106, Ethyl trans-2-(4-hydroxyphenyl)-1-cyclopropanecarboxylate]	1289.3 ± 46.5	1110.9 ± 67.5	–	–	–	–	–	–	–	10.5 ± 0.8	49.4 ± 4.1	showed inhibitory effect; also recorded: strong inhibitory potency	100 µM	9.4 ± 0.1	inhibited hrpS	–
O=C(O)/C=C/c1ccc(Br)cc1 [Compound 111, trans-4-Bromocinnamic acid]	102.8 ± 23.5	61.8 ± 4.2	–	–	–	–	–	–	–	23.9 ± 5.2	54.7 ± 7.2	showed inhibitory effect; also recorded: moderate potency	–	16.5 ± 0.8	inhibited hrpS	–
OC/C=C/c1ccccc1 [Compound 032, Cinnamyl alcohol]	681.6 ± 217.9	784.0 ± 53.3	minor alterations in bacterial growth	–	–	–	–	–	–	–	–	–	–	–	–	–
COc1ccc(/C=C/CO)cc1 [Compound 126, trans-4-Methoxycinnamyl alcohol]	386.9 ± 9.4	401.4 ± 10.8	–	–	–	–	–	–	–	7.8 ± 0.2	13.4 ± 0.3	showed inhibitory effect; also recorded: potent inhibitor	100 µM	–	inhibited hrpS	9.5 ± 0.7
O=C(/C=C/c1cccc(Cl)c1)NO [Compound 149, trans-3-Chlorocinnamohydroxamic acid]	31.2 ± 34.1	21.7 ± 28.5	minor alterations in bacterial growth	–	–	–	–	–	–	–	–	–	–	–	–	–
